We go through eight substances from patent US7531505B2, “Compositions and methods for promoting attachment of cells of endothelial cell lineage to medical devices” (Affinergy, Inc., priority 2006, dated 2009).

pEC50: −log10 of the molar value. Read-outs that look alike come from different tables or passages of the source.

The nature of data set [1]: ELISA of relative binding strength in buffers from pH 2 to pH 12. The note with it: peptide 1 μM, buffers pH 2 to pH 12. The procedure:
For determining the effect of pH on binding specificity, the assay for determining relative binding strengths (by ELISA) was performed in the presence of different buffers, varying in pH in a range of from pH 2 to pH 12. For example, a buffer containing glycine and water was adjusted to pH2 using HCl; an acetate buffer was adjusted to pH 4.0 (ionic strength of about 0.001 M); a phosphate buffer (NaH2PO4) was adjusted to pH 6.0 (ionic strength of about 0.012M); a phosphate buffer (NaH2PO4) was adjusted to pH 7.0 (ionic strength of about 0.019M); a tris buffer was adjusted to pH 8.0 (ionic strength of about 0.006M); an ethanolamine buffer was adjusted to pH 10.0 (ionic strength of about 0.003M); and a phosphate buffer (NaH2PO4) was adjusted to pH 12.0 (ionic strength of about 0.044M). The final concentration of each peptide in this assay was 1 μM. Tested in this assay were surface-binding domains comprising a peptide consisting essentially of the amino acid sequence illustrated as SEQ ID NO:3, and the multimers thereof (divalent version (SEQ ID NO:7) and tetravalent version (SEQ ID NO:8)).

For data set [2], the system named is human coronary endothelial cells, porcine coronary endothelial cells, and endothelial progenitor cells. Put plainly: FACS binding of biotin-tagged peptides to cells of endothelial cell lineage in whole blood. In kind it is cell-based, human or Porcine. The procedure:
Several of the endothelial-binding domains listed in Table 3 with desirable binding specificities (e.g., SEQ ID NOs: 9-18, 23-28, 30-32, and 35) were further characterized for binding to various cell types in whole blood by FACS, by synthesizing the peptides with a C-terminal biotin tag. Cells were harvested from cell culture flasks using trypsin/EDTA. The cells were neutralized with complete (serum-containing) media and allowed to recover at 37° C. for at least 20 minutes. Each cell type was labeled with its corresponding antibody, as set forth in Table 4, below, and incubated for 20 minutes at room temperature.
The antibody-labeled cells were rinsed twice by centrifugation using washing buffer (HBSS+1% BSA+0.1% sodium azide, sterile-filtered). One hundred (100) μL of whole blood was aliquotted into each well of a deep-well polypropylene plate. Peptides were added to each well to achieve the desired peptide concentration. Minimal volumes of cells (typically 10 μL of cells or approximately 50,000 cells) were added to each well. […] The samples were transferred to an analysis plate and analyzed for cell binding using FACS. In the analysis, controls for each cell type (with relevant antibody as per Table 4, but containing no peptide) were used to assess background fluorescence. […]
(In flow cytometry, cells or beads pass a laser one at a time.)

Data set [3] in a line: ELISA of relative binding strength of biotin-tagged peptides to stainless steel stents. The procedure:
As a specific illustrative example, nonspecific binding sites in wells containing stainless steel stent material in polystyrene microtiter plates were blocked with a buffer containing 1% bovine serum albumin for 2 hours at room temperature. The wells and stainless steel stent material were then washed three times with PBS-T. The plate was incubated for 1 hour at room temperature with shaking at 50 rpm. Each of 17 different phage display libraries was diluted in PBS+1% BSA and was added at a concentration of 10^10 pfu/ml in a total volume of 250 μl. After a 1 hour incubation at room temperature with shaking at 50 rpm, 70 μl of bovine serum was added, and then the plates were incubated at 37° C. with shaking for 1 hour. Unbound phage were removed by washing 3 time with 300 μl of PBS-T. After the final wash, phage bound to stents were used to infect E. coli cells. The infected cells were incubated in 96 deep-well plates, containing 1 ml of growth medium (e.g., 2xYT+5 μg/ml tetracycline) per well, at 37° C. overnight with shaking. Amplified phage-containing supernatant from each well was harvested by centrifugation. Second, third, and fourth rounds of selection were performed in a similar manner to that of the first round, using 150 μl of amplified phage supernatant from the previous round as input, and diluted with 150 μl of PBS-T+1% BSA. From the fourth round of selection, 340 individual clonal phage were then isolated and tested by plating out dilutions of phage pools to obtain single plaques. To detect phage that specifically bound to a metal such as stainless steel, conventional ELISAs were performed using an anti-M13 phage antibody conjugated to horseradish-peroxidase, followed by the addition of chromogenic agent ABTS (2,2′-azinobis(3-ethylbenzthiazoline-6-sulfonic acid). Relative binding strengths of the phage were determined by testing serial dilutions of the phage for binding to stainless steel in an ELISA, using an anti-M13 phage antibody conjugated to horseradish-peroxidase, followed by the addition of chromogenic agent ABTS, and measuring the absorbance at 405 nm. In the ELISA for determining relative binding strengths, the phage titrations were done in either buffer alone, or buffer containing 20% whole blood. The DNA sequence encoding peptides that specifically bound a metallic surface was determined.
Therefore, to determine if the binding specificity for stainless steel is primarily due to the amino acids in the C-terminal half of the amino acid sequence, or if the N-terminal region also impacts binding, peptides consisting essentially of amino acid sequences illustrated as SEQ ID NO:3 and SEQ ID NO:4 were synthesized. The peptides, as listed in Table 2 as SEQ ID NOs: 1, 3, and 4 were each synthesized with a biotin tag, and then assayed for relative binding strengths by ELISA using similar methods as that used for determining the relative binding strengths of phage displaying the peptides (as previously described herein). In this assay, serial dilutions (ranging from 0 μM to 10 μM) of each of the peptides were incubated with the stainless steel stents, washed with PBS-T, and relative binding specificity was quantitated by detecting the colorometric signal resulting from the reaction of streptavidin-alkaline phosphatase (the streptavidin portion binding to the biotin-labeled peptides) with chromogenic substrate. The EC50 was determined from the titration curve. […]

The subject of a further data set is endothelial cells. Put plainly: Adherence of endothelial cells to coated stainless steel disks (luminescent ATP read-out). It counts as cell-based. The following applies: coating at 10 μM for 1 hour; 25,000 endothelial cells, 10% bovine serum, 15 minutes; controls uncoated, SEQ ID NO:3 or irrelevant peptide. The procedure: The biofunctional coating composition comprising an amino acid sequence illustrated as SEQ ID NO:47 was then tested for its ability to selectively adhere cells of endothelial cell lineage to a metallic surface of a medical device. In this example, stainless steel disks were used to represent a metallic surface of a medical device. The disks were contacted with a buffered solution containing the biofunctional coating composition at a concentration of 10 μM for 1 hour at room temperature. As controls for non-specific binding, disks were either uncoated, or coated with the surface-binding domain comprising a peptide consisting essentially of an amino acid sequence of SEQ ID NO:3, or an irrelevant peptide (having no known binding specificity for metal or stainless steel or endothelial cells). The disks were washed with PBS, and then 25,000 endothelial cells were added in cell media containing 10% bovine serum, and incubated at room temperature for 15 minutes. The disks were washed in PBS, and the cells were then quantitated using a commercial luminescent cell viability assay system that measures intracellular ATP using a luminescent read-out. The luminescence was detected using a plate reader.

Data set [4] has as its system cells of endothelial cell lineage. The data set can be described thus: Additional assays characterizing binding specificity of endothelial-binding domains (EC50). The following applies: read-out: EC50 of endothelial-binding domain. It counts as cell-based. From the text:
In some embodiments, a binding domain that binds specifically to a particular surface, material or composition binds at least 10%, 20%, 30%, 40%, 50%, 60%, 70%, 80%, 90%, 100%, 200%, 300%, 400%, 500%, or a higher percentage, than the binding domain binds to an appropriate control such as, for example, a different material or surface, or a protein typically used for such comparisons such as bovine serum albumin. For example, binding specificity can determined by an assay in which quantitated is a signal (e.g., fluorescence, or colorimetric) representing the relative amount of binding between a peptide and target cells, as compared to peptide and non-target cells. […] In a preferred embodiment, the binding domain has binding specificity that is additionally characterized by an EC50 of 10 μM or less, and more preferably less than 1 μM. The EC50 can be determined using any number of methods known in the art, such as by generating a concentration response curve from a binding assay in which the concentration of the peptide is titered with a known amount of material or cells for which the peptide has binding specificity (see, for example, methods described in Examples 2 and 3 herein). In such case, the EC50 represents the concentration of peptide producing 50% of the maximal binding observed for that peptide in the assay. […]

[5] abbreviates: biotin-tagged peptide, serial dilutions 0 μM to 10 μM, stainless steel stents, read-out: EC50 expressed in nanomoles.

Regarding “SEQ ID NO:7 (SSHRTNHKKNNPKKKNKTRGSSHRTNHKKNNPKKKNKTRG)”, in data set [1], the “optimum pH for binding” value is reported as 7.0 pH.
With VVFAASGVAADAGWSVS [SEQ ID NO:32], the “binding preference between endothelial progenitor cells and endothelial cells” value in data set [2] is on record as “preference for binding endothelial cells”.
The term pEC50 denotes the negative decadic logarithm of the EC50, by convention in mol/L. Take “SGVVDAGVVAEDGVSGEASRSSHRTNHKKNNPKKKNKTR [SEQ ID NO:1]”: in data set [3] (setting [5]), the negative logarithm of the EC50 (pEC50) was greater than 6.60.
As to SSHRTNHKKNNPKKKNKTR [SEQ ID NO:3], the pEC50 in data set [3] (setting [5]) was greater than 7.30; in data set [3] (peptide subjected to ethylene oxide sterilization (642 mg/L for 2 hours), read-out: EC50 for binding to stainless steel after ethylene oxide sterilization), greater than 7.30. Moreover, in data set [3] (ethylene oxide 642 mg/L for 2 hours, compared with unsterilized peptide), the “effect of ethylene oxide sterilization on relative binding specificity for stainless steel” value is listed as “minimal to no effect”. Moreover, the “optimum pH for binding” value in data set [1] was 7.0 pH.
On to “SSFYGEVGYVGASLYAGGASSRG-PEG-SSHRTNHKKNNPKKKNKTRG [SEQ ID NO:47]”, for which the “number of endothelial cells bound to coated stainless steel disks compared with controls” value with endothelial cells is on record as “several fold increase”.
As for FYGEVGYVGASLYAGGAS [SEQ ID NO:19], the pEC50 in data set [4] is greater than 5.00.
In the case of AGSSSSVSFVAAAGSAV [SEQ ID NO:14], the “binding preference between endothelial progenitor cells and endothelial cells” value in data set [2] is on record as “prefer binding to endothelial progenitor cells as compared to endothelial cells”.
In the case of NHTISKNHKKKNKNSNKTR [SEQ ID NO:4], in data set [3] (setting [5]), the negative-log EC50 (pEC50) is greater than 6.60.
